{
  "source": "patent US20140037606A1",
  "about": "“CELL-BASED, ANTI-CANCER VACCINES” (priority 2012, published 2014)",
  "key": {"bone marrow-derived DCs [1]": {"test_system": "bone marrow-derived DCs", "experiment": "DC viability/lifespan by FACS of 7-AAD staining of CD11c+ cells", "format": "cell-based, mouse", "details": "treatment alone, no LPS; data not shown", "description": "(§1) FIG. 1. Inhibition of mTOR expression prolongs DC lifespan and promotes expression of costimulatory molecules CD40 and CD86. (A) DCs were pulsed with Pam2CSK4, LPS, R848, or CpG for 6 hours and then washed and cultured in complete medium. Cell viability was monitored daily by FACS analysis of 7-AAD staining of CD11c^+ cells. (B) Western blot for mTOR and β-actin protein in Luciferase hpRNA (Luc^hp) or mTOR hpRNA (mTOR^hp)-transduced DCs. (C) DCs were stimulated with media alone, LPS, or rapamycin+LPS for 30 minutes. Cells were subsequently fixed and stained for phosphorylated S6 protein as a molecular readout for mTOR activation and analyzed by FACS. (D) Luc^hp and mTOR^hp-transduced DCs were left untreated or stimulated with LPS and monitored daily for cell viability by analysis of 7-AAD staining of CD11c^+ cells. (E) Luc^hp or mTOR^hp DCs were cultured with or without LPS for 24 hours and analyzed by FACS for CD40 and CD86 expression. […]\n(§2) FIG. 2. […] Cells were monitored daily for cell viability as described for FIG. 1. […] (B) DCs were unstimulated or stimulated with LPS, RAP+LPS, or KU+LPS and analyzed by FACS 24 hours later for CD40 and CD86 expression. […] (C) DCs were treated as in (B) and analyzed daily by FACS for CD40 and CD86 expression gated on live CD11c^+ cells. […]"}, "[2]": {"test_system": "mTORC2-mediated Akt phosphorylation", "experiment": "Activation-induced Akt Ser473 phosphorylation in DCs", "format": "cell-based, mouse"}, "human myeloid DCs": {"test_system": "human myeloid DCs", "experiment": "Costimulatory molecule expression in human myeloid DCs by FACS", "format": "cell-based", "details": "R848 1 μg/mL, inhibitors 100 nM", "description": "FIG. 3. Pharmacological inhibition of mTOR augments the duration of costimulatory molecule expression in human myeloid DCs. (A) Human myeloid DCs were either unstimulated or stimulated with R848 in the presence or absence of rapamycin (RAP) or KU. CD40 and CD86 expression was analyzed by FACS. Day 4 costimulatory molecule expression from a representative donor (5430) is depicted. (B) DCs were treated as in (A) and analyzed daily by FACS for CD40 and CD86 expression. (C) DCs were treated as in (A) and analyzed for viability at indicated times by FACS analysis of 7-AAD staining. For each treatment, data from 4-6 individual donors is depicted.\nHuman DC Culture: Human myeloid DCs were isolated from human blood using MACS positive selection beads. In brief, filters from hospital blood donors were generously donated by the CVPH Medical Center in Plattsburgh, N.Y. Blood cells were obtained by reverse flushing filters in sterile HBSS. PBMCs were obtained by centrifugation of blood samples over Ficoll-Paque Plus (density 1.077 g/mL) (GE Healthcare). Myeloid DCs were enriched using the BDCA-1 Positive Selection DC Islation Kit (Miltenyi Bioscience) per the manufacturer's instructions. […] At indicated times, DCs were harvested and analyzed by FACS for maturation markers."}, "bone marrow-derived DCs [3]": {"test_system": "bone marrow-derived DCs", "experiment": "Costimulatory molecule expression on DCs by FACS", "format": "cell-based, mouse", "description": "as §1, §2"}},
  "data": [
    {"smiles": "COc1ccc(-c2ccc3c(N4CCOCC4)nc(N4C[C@@H](C)O[C@@H](C)C4)nc3n2)cc1CO", "note": "[KU, KU 0063794]", "values": [
      {"measurement": "viability of unstimulated DCs", "setting": "bone marrow-derived DCs [1]", "value": "did not impact"},
      {"measurement": "activation induced Akt Ser473 phosphorylation", "setting": "[2]", "value": "inhibited"},
      {"measurement": "costimulatory molecule expression (CD40, CD86) in response to R848", "setting": "human myeloid DCs", "value": "enhanced"},
      {"measurement": "duration of expression of CD40 and CD86 in response to LPS", "setting": "bone marrow-derived DCs [3]; analyzed daily, live CD11c+ cells", "value": "prolonged"},
      {"measurement": "percentage of DCs expressing CD40 and CD86", "setting": "bone marrow-derived DCs [3]; during LPS stimulation, 24 hours, inhibitors 100 nM", "value": "increase"}
    ]}
  ]
}
